Test results: patent US8551997B2, “Structural-based inhibitors of the glutathione binding site in aldose reductase, methods of screening therefor and methods of use” (The Board of Regents of the University of Texas System, priority 2004, dated 2013)

Assays:
C57BL/6 mice = test: LPS-induced cardiac dysfunction, M-mode echocardiography; format: in vivo, mouse
HT29 cells = test: HT29 cell proliferation, MTT assay; format: cell-based; conditions: inhibitor alone
Description: HT29 cells were grown to confluence in McCoy's medium and harvested and plated 2,500 per well in a 96-well plate. Subconfluent cells were growth arrested in 0.1% FBS with or without AR inhibitor sorbinil or zopolrestat (20 μM). After 24 hours, EGF (5 ng/ml) or BFGF (10 ng/ml) was added to the medium and the cells were incubated for another 24 hours. Cells incubated with the AR inhibitors alone served as control. Cell viability was determined by an MTT assay.

(S)-6-fluorospiro[chroman-4,4′-imidazolidine]-2,5′-dione [sorbinil]
percent fractional shortening (FS %) (C57BL/6 mice; at 8 h after LPS, pretreated with sorbinil): recovered significantly
general activity level of LPS-exposed mice (C57BL/6 mice; within 24 h): normal grooming and other activities
HT29 cells proliferation (HT29 cells): did not cause any effect
